Experimental data from article PMC3022706 (BMC Microbiology, 2010).

Tests used:
[1] = target: T1, Dld (Cg1027), quinone-dependent D-lactate dehydrogenase (Corynebacterium glutamicum, UniProt Q8NRY8); test: absorption spectrum of purified protein ([…] and […] nm); type: binding; conditions: bound cofactor, co-purified; non-covalent; identified from spectrum and FAD domain
T1 construct: PCR fragment printed as 1,020 bp but gene coordinates 955683-957398 imply 571 residues; reverse primer dld2 lacks stop codon; abstract also misprints Cg1067
T1 sequence (Q8NRY8 1-571): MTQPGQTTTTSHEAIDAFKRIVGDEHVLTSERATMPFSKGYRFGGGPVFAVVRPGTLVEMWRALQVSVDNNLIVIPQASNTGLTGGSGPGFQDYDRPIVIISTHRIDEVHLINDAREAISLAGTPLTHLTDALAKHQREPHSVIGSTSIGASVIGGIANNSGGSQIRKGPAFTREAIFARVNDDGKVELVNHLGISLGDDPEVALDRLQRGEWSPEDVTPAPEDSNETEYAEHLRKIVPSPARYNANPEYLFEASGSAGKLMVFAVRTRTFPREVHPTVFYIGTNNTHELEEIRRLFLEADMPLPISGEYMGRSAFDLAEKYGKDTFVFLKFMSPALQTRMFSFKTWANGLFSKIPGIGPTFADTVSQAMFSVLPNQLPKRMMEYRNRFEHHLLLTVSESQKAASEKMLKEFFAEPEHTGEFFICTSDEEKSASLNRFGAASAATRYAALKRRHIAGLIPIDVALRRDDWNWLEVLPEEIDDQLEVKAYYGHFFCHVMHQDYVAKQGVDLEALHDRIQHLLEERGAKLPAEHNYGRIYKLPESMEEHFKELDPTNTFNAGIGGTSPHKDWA

purified protein = substrate: C[C@@H](O)C(=O)O; test: purified protein; conditions: 2,6-dichloroindophenol as electron acceptor, 30 °C, potassium phosphate, pH optimum 7.0, Discussion prints 0.62 mM

For `Cc1cc2nc3c(=O)[nH]c(=O)nc-3n(C[C@H](O)[C@H](O)[C@H](O)COP(=O)(O)OP(=O)(O)OC[C@H]3O[C@@H](n4cnc5c(N)ncnc54)[C@H](O)[C@@H]3O)c2cc1C` [FAD], the “absorption spectrum of purified protein (375 and 445 nm)” value [1] was “These results suggest that D-lactate dehydrogenase from C. glutamicum contains FAD as a bound cofactor”.

B1: Dld (Cg1027), quinone-dependent D-lactate dehydrogenase (Corynebacterium glutamicum ATCC 13032) (protein)
chain: MTQPGQTTTTSHEAIDAFKRIVGDEHVLTSERATMPFSKGYRFGGGPVFAVVRPGTLVEMWRALQVSVDNNLIVIPQASNTGLTGGSGPGFQDYDRPIVIISTHRIDEVHLINDAREAISLAGTPLTHLTDALAKHQREPHSVIGSTSIGASVIGGIANNSGGSQIRKGPAFTREAIFARVNDDGKVELVNHLGISLGDDPEVALDRLQRGEWSPEDVTPAPEDSNETEYAEHLRKIVPSPARYNANPEYLFEASGSAGKLMVFAVRTRTFPREVHPTVFYIGTNNTHELEEIRRLFLEADMPLPISGEYMGRSAFDLAEKYGKDTFVFLKFMSPALQTRMFSFKTWANGLFSKIPGIGPTFADTVSQAMFSVLPNQLPKRMMEYRNRFEHHLLLTVSESQKAASEKMLKEFFAEPEHTGEFFICTSDEEKSASLNRFGAASAATRYAALKRRHIAGLIPIDVALRRDDWNWLEVLPEEIDDQLEVKAYYGHFFCHVMHQDYVAKQGVDLEALHDRIQHLLEERGAKLPAEHNYGRIYKLPESMEEHFKELDPTNTFNAGIGGTSPHKDWA
Work on B1 yielded a Km (purified protein) of 610 µM.
